One series concerns PXR. Further details: method as in PMID 23600156. Particulars: previous work of the authors; cited from earlier work.
For series [1], the system named is CYP3A4. Put plainly: Cocktail method: pharmacokinetics of probe drug midazolam after P. ginseng. As to conditions: rats, ketoconazole 40 mg·kg^−1 intraperitoneal 3 days, midazolam 10 mg·kg^−1 caudal vein.
In series [2] the target is T1, CYP3A4 (Homo sapiens, UniProt P08684). Briefly: Specific inhibitor method in HLMs: ketoconazole. The class given is in vitro ADME. More on the design: tissue Rild-biotech X008067; host or cells: human liver microsomes. As to conditions: alkaloid 20 μM, KEN 1 μM (specific inhibitor for CYP3A), 37°C 60 min, n = 3. Here is the method: (§1) To screen the CYP isoforms for aconitine, mesaconitine, and hypaconitine metabolism, we used known inhibitors of the metabolism of aconitine, mesaconitine, and hypaconitine in HLMs. ANF (CYP1A2: 1 μM; CAS: […]), SPE (CYP2C9: 1 μM; CAS: 526-08-9), DDTC (CYP2E1: 1 μM; CAS: 148-18-5), and KEN (CYP3A4: 1 μM; CAS: 65277-42-1) were all from EFEBIO Co., Ltd., which were incubated separately with aconitine, mesaconitine, and hypaconitine (20 μM), HLMs, and NADPH under the same incubation conditions as mentioned above. […] The hepatic metabolism rate of the incubation solution with no inhibitor was used as the negative control. The HLM (Rild-biotech, shanghai, China, X008067 ) mixtures were incubated at 37°C for 60 min. NADPH was preincubated for 5 min before it was added to the system. Precooled acetonitrile/methanol (800 μL, 1:1, v/v) was added to stop the incubation. […] Aconitine, mesaconitine, and hypaconitine standards of different concentrations were added to the incubation system to obtain the standard curve.
Target sequence in this assay (P08684 whole entry, canonical isoform): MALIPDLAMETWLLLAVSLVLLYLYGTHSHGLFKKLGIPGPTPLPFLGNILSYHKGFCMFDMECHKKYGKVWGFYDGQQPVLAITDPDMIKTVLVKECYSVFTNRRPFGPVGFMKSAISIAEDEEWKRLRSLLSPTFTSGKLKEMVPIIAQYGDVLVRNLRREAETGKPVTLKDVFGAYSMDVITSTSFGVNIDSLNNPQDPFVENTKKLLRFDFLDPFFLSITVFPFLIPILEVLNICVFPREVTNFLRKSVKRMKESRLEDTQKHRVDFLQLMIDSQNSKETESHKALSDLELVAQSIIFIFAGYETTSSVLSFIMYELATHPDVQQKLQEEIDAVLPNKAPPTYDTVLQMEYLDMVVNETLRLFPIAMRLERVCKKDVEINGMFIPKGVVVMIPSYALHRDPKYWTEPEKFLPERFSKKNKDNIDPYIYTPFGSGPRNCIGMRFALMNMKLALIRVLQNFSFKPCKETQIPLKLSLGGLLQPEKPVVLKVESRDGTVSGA

For the next series, the target named is T2, CYP2E1 (Homo sapiens, UniProt P05181).
T2 construct: tissue Rild-biotech X008067; host or cells: human liver microsomes
T2 sequence (P05181 whole entry): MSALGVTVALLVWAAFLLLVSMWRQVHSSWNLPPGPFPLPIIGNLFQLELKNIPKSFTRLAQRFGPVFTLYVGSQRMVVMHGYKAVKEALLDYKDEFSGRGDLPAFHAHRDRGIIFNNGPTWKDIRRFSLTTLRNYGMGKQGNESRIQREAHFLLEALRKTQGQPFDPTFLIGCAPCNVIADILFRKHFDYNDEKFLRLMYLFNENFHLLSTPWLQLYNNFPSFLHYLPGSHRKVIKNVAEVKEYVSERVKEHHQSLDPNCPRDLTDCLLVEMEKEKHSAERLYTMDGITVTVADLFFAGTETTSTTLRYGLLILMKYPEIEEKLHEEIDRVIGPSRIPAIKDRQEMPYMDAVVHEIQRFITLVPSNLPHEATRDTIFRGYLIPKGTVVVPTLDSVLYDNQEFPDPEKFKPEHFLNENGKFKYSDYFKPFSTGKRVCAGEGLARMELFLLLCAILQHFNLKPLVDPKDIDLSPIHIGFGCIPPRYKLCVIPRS
Briefly: Specific inhibitor method in HLMs: diethyldithiocarbonate. The format is in vitro ADME. As to conditions: alkaloid 20 μM, DDTC 1 μM (CYP2E1), 37°C 60 min, P > 0.05. As for the experimental part:
as §1

The target in series [3] is T1, CYP3A4. Put plainly: Kinetic analysis in recombinant human CYP3A4. As to conditions: for in vitro mean intrinsic clearance rate by CYP3A4: CLint = Vmax/KM. The format is in vitro ADME. More on the design: purchased Corning 456202; host or cells: baculovirus infected insect cells (BTI-TN-5B1-4). The source says:
(§2) Recombinant human cytochrome P450 enzymes were obtained from Corning (USA, CYP3A4:456202; CYP1A2:456203; CYP2C9:456218; CYP2E1:456206). The activity were catalyzed by CYP3A4/CYP1A2/CYP2C9/CYP2E1, which were expressed from human CYP3A4/CYP1A2/CYP2C9/CYP2E1 cDNA, respectively, using a baculovirus expression system. Baculovirus infected insect cells (BTI-TN-5B1-4) were used to prepare these microsomes. These microsomes also contain cDNA-expressed humans P450 reductase and human cytochrome b5. A microsome preparation using wild type virus (Catalog No. 456201) was used as a control for native activities.
(§3) The kinetic parameters for the metabolism of aconitine, mesaconitine, and hypaconitine were determined by incubating increasing concentrations of aconitine, mesaconitine, and hypaconitine (5, 10, 20, and 40 μM) at 37°C for 90min with recombinant human CYP isoforms and NADPH under the incubation conditions described above. Precooled acetonitrile/methanol (800 μL, 1:1, v/v) was added to stop the incubation.
The compound reaction velocity (V) is expressed as V = (C0 – Ct)/T/Cp, where C0 and Ct are the initial and final concentrations of aconitine, mesaconitine, or hypaconitine in the incubation solution, respectively, T is the incubation time (min), and Cp is the protein concentration (mg·mL^−1 or nmol). The mean intrinsic clearance rate (CLint) for the in vitro incubation was estimated using Vmax/KM, where Vmax is the maximum velocity and KM is the Michaelis constant. All values are expressed as the mean ± standard deviation (SD).
Target sequence in this assay (P08684 2-503 limits assumed): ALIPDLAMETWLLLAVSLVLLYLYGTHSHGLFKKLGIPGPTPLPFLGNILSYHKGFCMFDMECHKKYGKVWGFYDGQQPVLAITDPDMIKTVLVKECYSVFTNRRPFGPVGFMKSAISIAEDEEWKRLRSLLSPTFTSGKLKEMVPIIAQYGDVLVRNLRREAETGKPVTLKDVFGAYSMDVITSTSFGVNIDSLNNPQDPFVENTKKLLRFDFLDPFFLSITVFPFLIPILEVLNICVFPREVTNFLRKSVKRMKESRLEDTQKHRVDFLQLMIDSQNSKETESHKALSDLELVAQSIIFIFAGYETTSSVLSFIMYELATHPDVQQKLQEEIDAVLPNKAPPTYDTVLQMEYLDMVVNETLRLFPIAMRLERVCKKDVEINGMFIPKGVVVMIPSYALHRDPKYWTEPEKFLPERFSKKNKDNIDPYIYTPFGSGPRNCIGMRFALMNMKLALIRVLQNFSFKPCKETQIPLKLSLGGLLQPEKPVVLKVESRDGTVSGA

Series [4] deals with CYP3A4. More on the design: method as in PMID 23600156. Particulars: concentration-dependent manner; cited from earlier work.
The target of another series is T3, recombinant human CYP1A2 (Homo sapiens, UniProt P05177).
T3 construct: purchased Corning 456203; host or cells: baculovirus infected insect cells (BTI-TN-5B1-4)
T3 sequence (P05177 2-516 limits assumed): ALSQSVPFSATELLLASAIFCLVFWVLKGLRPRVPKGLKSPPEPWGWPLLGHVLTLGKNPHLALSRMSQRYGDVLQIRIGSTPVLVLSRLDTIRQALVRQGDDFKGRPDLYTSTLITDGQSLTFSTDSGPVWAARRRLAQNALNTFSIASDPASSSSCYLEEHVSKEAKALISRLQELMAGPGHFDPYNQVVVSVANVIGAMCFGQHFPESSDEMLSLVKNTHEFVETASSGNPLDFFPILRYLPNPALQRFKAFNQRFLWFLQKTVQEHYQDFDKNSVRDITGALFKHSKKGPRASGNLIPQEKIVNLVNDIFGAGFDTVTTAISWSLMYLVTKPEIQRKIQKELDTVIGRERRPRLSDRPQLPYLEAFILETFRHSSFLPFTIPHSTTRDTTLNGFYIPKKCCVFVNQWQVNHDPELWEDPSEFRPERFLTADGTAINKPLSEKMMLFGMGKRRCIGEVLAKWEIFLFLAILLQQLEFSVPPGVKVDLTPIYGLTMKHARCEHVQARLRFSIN
Put plainly: Kinetic analysis in recombinant human CYP1A2. The format is in vitro ADME. As to conditions: substrate 5, 10, 20, 40 μM, 37°C 90 min, n = 3.
Text: as §2, §3
The compound reaction velocity (V) is expressed as V = (C0 – Ct)/T/Cp, where C0 and Ct are the initial and final concentrations of aconitine, mesaconitine, or hypaconitine in the incubation solution, respectively, T is the incubation time (min), and Cp is the protein concentration (mg·mL^−1 or nmol). […] All values are expressed as the mean ± standard deviation (SD).

[5] abbreviates: recombinant human CYP3A4, substrate 5, 10, 20, 40 μM, 37°C 90 min, n = 3.

Consider 15 molecules from article PMC6463675, “Panax ginseng Inhibits Metabolism of Diester Alkaloids by Downregulating CYP3A4 Enzyme Activity via the Pregnane X Receptor” (Evidence-based Complementary and Alternative Medicine : eCAM, 2019).

With `CC(C)=CCCC(C)(O)[C@H]1CC[C@]2(C)[C@@H]1[C@H](O)C[C@@H]1[C@@]3(C)CC[C@H](O)C(C)(C)[C@@H]3CC[C@]12C` (stereo in doubt) [protopanaxadiol], the “Effect on PXR” value in the series with PXR is “no obvious effects”.
For `CC(C)=CCC[C@](C)(O[C@@H]1O[C@H](CO)[C@@H](O)[C@H](O)[C@H]1O)[C@H]1CC[C@]2(C)[C@@H]1[C@H](O)C[C@@H]1[C@@]3(C)CC[C@H](O[C@@H]4O[C@H](CO)[C@@H](O)[C@H](O)[C@H]4O)C(C)(C)[C@@H]3CC[C@]12C` [Ginsenoside F2], the “Effect on PXR” value with PXR is given as “moderate inductive effects”.
Take `CC(=O)N1CCN(c2ccc(OCC3COC(Cn4ccnc4)(c4ccc(Cl)cc4Cl)O3)cc2)CC1` (stereo not drawn) [Ketoconazole]: the “AUC(0-t) of midazolam” value with CYP3A4 [1] (control 2.23 ± 0.64) is 4.19 ± 0.14^∗∗ mg^.L^-1.h. Further, the “AUC(0-∞) of midazolam” value in the series with CYP3A4 [1] (control 2.30 ± 0.59) was 4.25 ± 0.15^∗∗ mg^.L^-1.h. Further, the CLz of midazolam in the series with CYP3A4 [1] (control 4.66 ± 1.43) was 2.36 ± 0.08^∗∗ L^.h^-1.kg^−1. In addition, the Cmax of midazolam in the series with CYP3A4 [1] (control 4.84 ± 1.89) is listed as 10.48 ± 0.63^∗∗ mg^.L^−1.
On to `CC1(C)CCC[C@](C)([C@H]2CC[C@]3(C)[C@@H]2[C@H](O)C[C@@H]2[C@@]4(C)CC[C@H](O)C(C)(C)[C@@H]4[C@@H](O)C[C@]23C)O1` [Panaxotriol], for which the “Effect on PXR” value in the series with PXR is recorded as “inhibitory effects”.
For `CC(C)=CCC[C@](C)(O)[C@H]1CC[C@]2(C)[C@@H]1[C@H](O)C[C@@H]1[C@@]3(C)CC[C@H](O[C@@H]4O[C@H](CO)[C@@H](O)[C@H](O)[C@H]4O[C@@H]4O[C@H](CO)[C@@H](O)[C@H](O)[C@H]4O)C(C)(C)[C@@H]3CC[C@]12C` [Rg3], in the series on PXR, the “Effect on PXR” value is “no obvious effects”.
On to `CC(C)=CCC[C@](C)(O)[C@H]1CC[C@]2(C)[C@@H]1[C@H](O)C[C@@H]1[C@@]3(C)CC[C@H](O[C@@H]4O[C@H](CO)[C@@H](O)[C@H](O)[C@H]4O)C(C)(C)[C@@H]3CC[C@]12C` [Rh2], for which the “Effect on PXR” value in the series on PXR is reported as “no obvious effects”.
In the case of `CCN1C[C@]2(COC)[C@H](O)C[C@H](OC)[C@@]34[C@@H]5C[C@@]6(O)[C@H](OC(=O)c7ccccc7)[C@@H]5[C@@](OC(C)=O)([C@@H]([C@H](OC)[C@H]23)[C@@H]14)[C@@H](O)[C@@H]6OC` [aconitine], the “Hepatic metabolism rate when incubated with KEN, compared with negative control” value at CYP3A4 [2] turned out to be 60.37 ± 5.01%. Also, the “Hepatic metabolism rate after incubation with DDTC, compared with control” value (from here on “Hepatic metabolism rate … compared with control”) on CYP2E1 is listed as “no significant change”. In addition, the Michaelis constant (Km) at 90 min on CYP3A4 [3] (human) amounted to 10.1 ± 3.26 µM. At CYP3A4 [3] (recombinant human CYP3A4), the “in vitro mean intrinsic clearance rate by CYP3A4” value was 0.0119 mL·nmol CYP^−1·min^−1. On CYP3A4 [3] (setting [5]), the “Vmax of CYP3A4” value is 0.12 ± 0.01 nmol·mg protein^−1·min^−1.
In the case of `CC(C)=CCC[C@](C)(O[C@@H]1O[C@H](CO[C@@H]2OC[C@@H](O)[C@H](O)[C@H]2O)[C@@H](O)[C@H](O)[C@H]1O)[C@H]1CC[C@]2(C)[C@@H]1[C@H](O)C[C@@H]1[C@@]3(C)CC[C@H](O[C@@H]4O[C@H](CO)[C@@H](O)[C@H](O)[C@H]4O[C@@H]4O[C@H](CO)[C@@H](O)[C@H](O)[C@H]4O)C(C)(C)[C@@H]3CC[C@]12C` [ginsenoside Rb3], the “Effect on PXR” value in the series on PXR is reported as “inhibitory effects”.
As to `CC(C)=CCC[C@](C)(O[C@@H]1O[C@H](CO)[C@@H](O)[C@H](O)[C@H]1O)[C@H]1CC[C@]2(C)[C@@H]1[C@H](O)C[C@@H]1[C@@]3(C)CC[C@H](O)C(C)(C)[C@@H]3[C@@H](O[C@@H]3O[C@H](CO)[C@@H](O)[C@H](O)[C@H]3O)C[C@]12C` [ginsenoside Rg1], the “Effect on PXR” value in the series on PXR was “inhibitory effects”. Also, the “CYP3A4 mRNA expression” value in the series on CYP3A4 [4] is recorded as “downregulated”.
On to `CC(C)=CCC[C@](C)(O)[C@H]1CC[C@]2(C)[C@@H]1[C@H](O)C[C@@H]1[C@@]3(C)CC[C@H](O)C(C)(C)[C@@H]3[C@@H](O[C@@H]3O[C@H](CO)[C@@H](O)[C@H](O)[C@H]3O[C@@H]3O[C@@H](C)[C@H](O)[C@@H](O)[C@H]3O)C[C@]12C` [ginsenoside Rg2], for which, in the series on PXR, the “Effect on PXR” value was “inhibitory effects”.
For `COC[C@@]12CC[C@H](OC)[C@]34C(C([C@H](OC)[C@H]13)[C@]1(OC(C)=O)[C@H]3[C@@H](OC(=O)c5ccccc5)[C@](O)(C[C@H]34)[C@@H](OC)[C@@H]1O)N(C)C2` [hypaconitine], the “Hepatic metabolism rate when incubated with KEN, compared with negative control” value at CYP3A4 [2] was determined as 10.11 ± 6.19%. Further, the “Hepatic metabolism rate … compared with control” value at CYP2E1 is given as “no significant change”. Moreover, the “in vitro mean intrinsic clearance rate by CYP3A4” value at CYP3A4 [3] (recombinant human CYP3A4) is 0.0091 mL·nmol CYP^−1·min^−1.
`COC[C@]12CN(C)[C@@H]3[C@@H]4[C@H](OC)[C@H]1[C@@]3([C@@H](OC)C[C@H]2O)[C@@H]1C[C@@]2(O)[C@H](OC(=O)c3ccccc3)[C@@H]1[C@]4(OC(C)=O)[C@@H](O)[C@@H]2OC` [mesaconitine]: the “Vmax of CYP1A2” value on recombinant human CYP1A2 turned out to be 0.27 ± 6.57 nmol·mg protein^−1·min^−1. Also, on CYP3A4 [2], the “Hepatic metabolism rate when incubated with KEN, compared with negative control” value was 21.67 ± 19.64%. Also, the “Hepatic metabolism rate … compared with control” value at CYP2E1 is “no significant change”. Further, the “in vitro mean intrinsic clearance rate by CYP3A4” value at CYP3A4 [3] (recombinant human CYP3A4) came to 0.0056 mL·nmol CYP^−1·min^−1. Also, on CYP3A4 [3] (setting [5]), the Km was found to be 131 ± 99.7 µM and the “Vmax of CYP3A4” value is on record as 0.73 ± 0.44 nmol·mg protein^−1·min^−1.
On to `CC(C)=CCC[C@](C)(O)[C@H]1CC[C@]2(C)[C@@H]1[C@H](O)C[C@@H]1[C@@]3(C)CC[C@H](O)C(C)(C)[C@@H]3[C@@H](O)C[C@]12C` [protopanaxatriol], for which the “Effect on PXR” value with PXR is “moderate inductive effects”.
For ginsenoside Rf1, the “Effect on PXR” value in the series on PXR was “no obvious effects”.
Take pseudoginsenoside F11: the “Effect on PXR” value in the series on PXR is “inhibitory effects”.
